Laboratory results as given in ChEMBL document CHEMBL5303573, “Mapping human microbiome drug metabolism by gut bacteria and their genes” (Nature, 2019).

Assay: The drug is tested on Bifidobacterium ruminantium strain: fecal isolate for biotransformation. The drug concentrations were measured before and after a 12-h incubation by liquid-chromatography-coupled mass spectrometry (LC–MS)
Details: 2 µM

Structure (SMILES)	Bacterial Biotransformation
COc1ccc2c(c1)c(CC(=O)O)c(C)n2C(=O)c1ccc(Cl)cc1 [INDOMETHACIN]	Compound NOT metabolized
Nc1nnc(-c2cccc(Cl)c2Cl)c(N)n1 [LAMOTRIGINE]	Compound NOT metabolized
CN1CCc2c(c3ccccc3n2Cc2ccccc2)C1.CN1CCc2c(c3ccccc3n2Cc2ccccc2)C1.O=S(=O)(O)c1cccc2c(S(=O)(=O)O)cccc12	Compound NOT metabolized

Details: akkermansia muciniphila, 12 h, 2 µM
Description: The drug is tested on Akkermansia muciniphila strain: ATCC BAA-835 for biotransformation. The drug concentrations were measured before and after a 12-h incubation by liquid-chromatography-coupled mass spectrometry (LC–MS)

Structure (SMILES)	Bacterial Biotransformation
COc1ccc2c(c1)c(CC(=O)O)c(C)n2C(=O)c1ccc(Cl)cc1 [INDOMETHACIN]	Compound metabolized
Nc1nnc(-c2cccc(Cl)c2Cl)c(N)n1 [LAMOTRIGINE]	Compound NOT metabolized
CN1CCc2c(c3ccccc3n2Cc2ccccc2)C1.CN1CCc2c(c3ccccc3n2Cc2ccccc2)C1.O=S(=O)(O)c1cccc2c(S(=O)(=O)O)cccc12	Compound NOT metabolized

Assay: The drug is tested on Eubacterium ventriosum strain: ATCC27560 for biotransformation. The drug concentrations were measured before and after a 12-h incubation by liquid-chromatography-coupled mass spectrometry (LC–MS)
Assay type: ADME
Set-up: dose 2 uM, timepoint 0 vs 12 hours
Details: 2 µM

Structure (SMILES)	Bacterial Biotransformation
COc1ccc2c(c1)c(CC(=O)O)c(C)n2C(=O)c1ccc(Cl)cc1 [INDOMETHACIN]	Compound metabolized
Nc1nnc(-c2cccc(Cl)c2Cl)c(N)n1 [LAMOTRIGINE]	Compound NOT metabolized
CN1CCc2c(c3ccccc3n2Cc2ccccc2)C1.CN1CCc2c(c3ccccc3n2Cc2ccccc2)C1.O=S(=O)(O)c1cccc2c(S(=O)(=O)O)cccc12	Compound NOT metabolized

Details: bacteroides thetaiotaomicron, 12 h, 2 µM
Description: The drug is tested on Bacteroides thetaiotaomicron strain: 3731 for biotransformation. The drug concentrations were measured before and after a 12-h incubation by liquid-chromatography-coupled mass spectrometry (LC–MS)

Structure (SMILES)	Bacterial Biotransformation
COc1ccc2c(c1)c(CC(=O)O)c(C)n2C(=O)c1ccc(Cl)cc1 [INDOMETHACIN]	Compound metabolized
Nc1nnc(-c2cccc(Cl)c2Cl)c(N)n1 [LAMOTRIGINE]	Compound NOT metabolized
CN1CCc2c(c3ccccc3n2Cc2ccccc2)C1.CN1CCc2c(c3ccccc3n2Cc2ccccc2)C1.O=S(=O)(O)c1cccc2c(S(=O)(=O)O)cccc12	Compound NOT metabolized

Assay: The drug is tested on Bacteroides dorei strain: DSM17855 for biotransformation. The drug concentrations were measured before and after a 12-h incubation by liquid-chromatography-coupled mass spectrometry (LC–MS)
Details: phocaeicola dorei, 2 µM

Structure (SMILES)	Bacterial Biotransformation
COc1ccc2c(c1)c(CC(=O)O)c(C)n2C(=O)c1ccc(Cl)cc1 [INDOMETHACIN]	Compound metabolized
Nc1nnc(-c2cccc(Cl)c2Cl)c(N)n1 [LAMOTRIGINE]	Compound NOT metabolized
CN1CCc2c(c3ccccc3n2Cc2ccccc2)C1.CN1CCc2c(c3ccccc3n2Cc2ccccc2)C1.O=S(=O)(O)c1cccc2c(S(=O)(=O)O)cccc12	Compound NOT metabolized

Details: roseburia intestinalis, 12 h, 2 µM
Description: The drug is tested on Roseburia intestinalis strain: L1-82 for biotransformation. The drug concentrations were measured before and after a 12-h incubation by liquid-chromatography-coupled mass spectrometry (LC–MS)

Structure (SMILES)	Bacterial Biotransformation
COc1ccc2c(c1)c(CC(=O)O)c(C)n2C(=O)c1ccc(Cl)cc1 [INDOMETHACIN]	Compound metabolized
Nc1nnc(-c2cccc(Cl)c2Cl)c(N)n1 [LAMOTRIGINE]	Compound NOT metabolized
CN1CCc2c(c3ccccc3n2Cc2ccccc2)C1.CN1CCc2c(c3ccccc3n2Cc2ccccc2)C1.O=S(=O)(O)c1cccc2c(S(=O)(=O)O)cccc12	Compound NOT metabolized

Details: bacteroides fragilis, 12 h, 2 µM
Description: The drug is tested on Bacteroides fragilis strain: NCTC 9343 for biotransformation. The drug concentrations were measured before and after a 12-h incubation by liquid-chromatography-coupled mass spectrometry (LC–MS)

Structure (SMILES)	Bacterial Biotransformation
COc1ccc2c(c1)c(CC(=O)O)c(C)n2C(=O)c1ccc(Cl)cc1 [INDOMETHACIN]	Compound metabolized
CN1CCc2c(c3ccccc3n2Cc2ccccc2)C1.CN1CCc2c(c3ccccc3n2Cc2ccccc2)C1.O=S(=O)(O)c1cccc2c(S(=O)(=O)O)cccc12	Compound NOT metabolized

Assay: The drug is tested on Eubacterium hallii strain: DSM3353 for biotransformation. The drug concentrations were measured before and after a 12-h incubation by liquid-chromatography-coupled mass spectrometry (LC–MS)
Details: anaerobutyricum hallii, 2 µM

Structure (SMILES)	Bacterial Biotransformation
COc1ccc2c(c1)c(CC(=O)O)c(C)n2C(=O)c1ccc(Cl)cc1 [INDOMETHACIN]	Compound NOT metabolized
Nc1nnc(-c2cccc(Cl)c2Cl)c(N)n1 [LAMOTRIGINE]	Compound NOT metabolized
CN1CCc2c(c3ccccc3n2Cc2ccccc2)C1.CN1CCc2c(c3ccccc3n2Cc2ccccc2)C1.O=S(=O)(O)c1cccc2c(S(=O)(=O)O)cccc12	Compound NOT metabolized

Assay: The drug is tested on Bifidobacterium longum subsp. Infantis strain: CCUG52486 for biotransformation. The drug concentrations were measured before and after a 12-h incubation by liquid-chromatography-coupled mass spectrometry (LC–MS)
Details: 2 µM

Structure (SMILES)	Bacterial Biotransformation
COc1ccc2c(c1)c(CC(=O)O)c(C)n2C(=O)c1ccc(Cl)cc1 [INDOMETHACIN]	Compound metabolized
CN1CCc2c(c3ccccc3n2Cc2ccccc2)C1.CN1CCc2c(c3ccccc3n2Cc2ccccc2)C1.O=S(=O)(O)c1cccc2c(S(=O)(=O)O)cccc12	Compound NOT metabolized

Assay: The drug is tested on Bacteroides xylanisolvens strain: DSM18836 for biotransformation. The drug concentrations were measured before and after a 12-h incubation by liquid-chromatography-coupled mass spectrometry (LC–MS)
Details: 2 µM

Structure (SMILES)	Bacterial Biotransformation
COc1ccc2c(c1)c(CC(=O)O)c(C)n2C(=O)c1ccc(Cl)cc1 [INDOMETHACIN]	Compound metabolized
Nc1nnc(-c2cccc(Cl)c2Cl)c(N)n1 [LAMOTRIGINE]	Compound NOT metabolized
CN1CCc2c(c3ccccc3n2Cc2ccccc2)C1.CN1CCc2c(c3ccccc3n2Cc2ccccc2)C1.O=S(=O)(O)c1cccc2c(S(=O)(=O)O)cccc12	Compound NOT metabolized

Assay: The drug is tested on Providencia stuartii strain: ATCC25827 for biotransformation. The drug concentrations were measured before and after a 12-h incubation by liquid-chromatography-coupled mass spectrometry (LC–MS)
Details: 2 µM

Structure (SMILES)	Bacterial Biotransformation
COc1ccc2c(c1)c(CC(=O)O)c(C)n2C(=O)c1ccc(Cl)cc1 [INDOMETHACIN]	Compound NOT metabolized
Nc1nnc(-c2cccc(Cl)c2Cl)c(N)n1 [LAMOTRIGINE]	Compound NOT metabolized
CN1CCc2c(c3ccccc3n2Cc2ccccc2)C1.CN1CCc2c(c3ccccc3n2Cc2ccccc2)C1.O=S(=O)(O)c1cccc2c(S(=O)(=O)O)cccc12	Compound NOT metabolized

Assay: The drug is tested on Clostridium ramosum strain: DSM1402 for biotransformation. The drug concentrations were measured before and after a 12-h incubation by liquid-chromatography-coupled mass spectrometry (LC–MS)
Details: thomasclavelia ramosa, 2 µM

Structure (SMILES)	Bacterial Biotransformation
COc1ccc2c(c1)c(CC(=O)O)c(C)n2C(=O)c1ccc(Cl)cc1 [INDOMETHACIN]	Compound NOT metabolized
Nc1nnc(-c2cccc(Cl)c2Cl)c(N)n1 [LAMOTRIGINE]	Compound NOT metabolized
CN1CCc2c(c3ccccc3n2Cc2ccccc2)C1.CN1CCc2c(c3ccccc3n2Cc2ccccc2)C1.O=S(=O)(O)c1cccc2c(S(=O)(=O)O)cccc12	Compound NOT metabolized

Assay: The drug is tested on Anaerotruncus colihominis strain: DSM17241 for biotransformation. The drug concentrations were measured before and after a 12-h incubation by liquid-chromatography-coupled mass spectrometry (LC–MS)
Details: 2 µM

Structure (SMILES)	Bacterial Biotransformation
COc1ccc2c(c1)c(CC(=O)O)c(C)n2C(=O)c1ccc(Cl)cc1 [INDOMETHACIN]	Compound NOT metabolized
Nc1nnc(-c2cccc(Cl)c2Cl)c(N)n1 [LAMOTRIGINE]	Compound NOT metabolized
CN1CCc2c(c3ccccc3n2Cc2ccccc2)C1.CN1CCc2c(c3ccccc3n2Cc2ccccc2)C1.O=S(=O)(O)c1cccc2c(S(=O)(=O)O)cccc12	Compound NOT metabolized

Details: limosilactobacillus reuteri cf48-3a, 12 h, 2 µM
Description: The drug is tested on Lactobacillus reuteri CF48-3A strain: BEI HM-102 for biotransformation. The drug concentrations were measured before and after a 12-h incubation by liquid-chromatography-coupled mass spectrometry (LC–MS)

Structure (SMILES)	Bacterial Biotransformation
COc1ccc2c(c1)c(CC(=O)O)c(C)n2C(=O)c1ccc(Cl)cc1 [INDOMETHACIN]	Compound metabolized
Nc1nnc(-c2cccc(Cl)c2Cl)c(N)n1 [LAMOTRIGINE]	Compound NOT metabolized
CN1CCc2c(c3ccccc3n2Cc2ccccc2)C1.CN1CCc2c(c3ccccc3n2Cc2ccccc2)C1.O=S(=O)(O)c1cccc2c(S(=O)(=O)O)cccc12	Compound NOT metabolized

Assay: The drug is tested on Bacteroides finegoldii strain: DSM17565 for biotransformation. The drug concentrations were measured before and after a 12-h incubation by liquid-chromatography-coupled mass spectrometry (LC–MS)
Details: 2 µM

Structure (SMILES)	Bacterial Biotransformation
COc1ccc2c(c1)c(CC(=O)O)c(C)n2C(=O)c1ccc(Cl)cc1 [INDOMETHACIN]	Compound metabolized
Nc1nnc(-c2cccc(Cl)c2Cl)c(N)n1 [LAMOTRIGINE]	Compound NOT metabolized
CN1CCc2c(c3ccccc3n2Cc2ccccc2)C1.CN1CCc2c(c3ccccc3n2Cc2ccccc2)C1.O=S(=O)(O)c1cccc2c(S(=O)(=O)O)cccc12	Compound NOT metabolized

Assay: The drug is tested on Bacteroides sp. WH2 strain: WH2 for biotransformation. The drug concentrations were measured before and after a 12-h incubation by liquid-chromatography-coupled mass spectrometry (LC–MS)
Details: bacteroides sp. wh2, 12 h, 2 µM

Structure (SMILES)	Bacterial Biotransformation
COc1ccc2c(c1)c(CC(=O)O)c(C)n2C(=O)c1ccc(Cl)cc1 [INDOMETHACIN]	Compound metabolized
Nc1nnc(-c2cccc(Cl)c2Cl)c(N)n1 [LAMOTRIGINE]	Compound NOT metabolized
CN1CCc2c(c3ccccc3n2Cc2ccccc2)C1.CN1CCc2c(c3ccccc3n2Cc2ccccc2)C1.O=S(=O)(O)c1cccc2c(S(=O)(=O)O)cccc12	Compound NOT metabolized

Details: bacteroides intestinalis, 12 h, 2 µM
Description: The drug is tested on Bacteroides intestinalis strain: DSM17393 for biotransformation. The drug concentrations were measured before and after a 12-h incubation by liquid-chromatography-coupled mass spectrometry (LC–MS)

Structure (SMILES)	Bacterial Biotransformation
COc1ccc2c(c1)c(CC(=O)O)c(C)n2C(=O)c1ccc(Cl)cc1 [INDOMETHACIN]	Compound metabolized
Nc1nnc(-c2cccc(Cl)c2Cl)c(N)n1 [LAMOTRIGINE]	Compound NOT metabolized
CN1CCc2c(c3ccccc3n2Cc2ccccc2)C1.CN1CCc2c(c3ccccc3n2Cc2ccccc2)C1.O=S(=O)(O)c1cccc2c(S(=O)(=O)O)cccc12	Compound NOT metabolized

Assay: The drug is tested on Collinsella aerofaciens strain: ATCC25986 for biotransformation. The drug concentrations were measured before and after a 12-h incubation by liquid-chromatography-coupled mass spectrometry (LC–MS)
Details: 2 µM

Structure (SMILES)	Bacterial Biotransformation
COc1ccc2c(c1)c(CC(=O)O)c(C)n2C(=O)c1ccc(Cl)cc1 [INDOMETHACIN]	Compound NOT metabolized
Nc1nnc(-c2cccc(Cl)c2Cl)c(N)n1 [LAMOTRIGINE]	Compound NOT metabolized
CN1CCc2c(c3ccccc3n2Cc2ccccc2)C1.CN1CCc2c(c3ccccc3n2Cc2ccccc2)C1.O=S(=O)(O)c1cccc2c(S(=O)(=O)O)cccc12	Compound NOT metabolized

Assay: The drug is tested on Ruminococcus gnavus strain: ATCC29149 for biotransformation. The drug concentrations were measured before and after a 12-h incubation by liquid-chromatography-coupled mass spectrometry (LC–MS)
Details: mediterraneibacter gnavus, 2 µM

Structure (SMILES)	Bacterial Biotransformation
COc1ccc2c(c1)c(CC(=O)O)c(C)n2C(=O)c1ccc(Cl)cc1 [INDOMETHACIN]	Compound NOT metabolized
Nc1nnc(-c2cccc(Cl)c2Cl)c(N)n1 [LAMOTRIGINE]	Compound NOT metabolized
CN1CCc2c(c3ccccc3n2Cc2ccccc2)C1.CN1CCc2c(c3ccccc3n2Cc2ccccc2)C1.O=S(=O)(O)c1cccc2c(S(=O)(=O)O)cccc12	Compound NOT metabolized

Assay: The drug is tested on Bacteroides fragilis strain: HMW615 for biotransformation. The drug concentrations were measured before and after a 12-h incubation by liquid-chromatography-coupled mass spectrometry (LC–MS)
Details: 2 µM

Structure (SMILES)	Bacterial Biotransformation
COc1ccc2c(c1)c(CC(=O)O)c(C)n2C(=O)c1ccc(Cl)cc1 [INDOMETHACIN]	Compound NOT metabolized
Nc1nnc(-c2cccc(Cl)c2Cl)c(N)n1 [LAMOTRIGINE]	Compound NOT metabolized
CN1CCc2c(c3ccccc3n2Cc2ccccc2)C1.CN1CCc2c(c3ccccc3n2Cc2ccccc2)C1.O=S(=O)(O)c1cccc2c(S(=O)(=O)O)cccc12	Compound NOT metabolized
